From article PMC13538185, “The PSD-95 inhibitor NA-1 is delivered to the brain upon nasal administration with uptake into the olfactory bulb improved by co-administration with the cell-penetrating peptides lowPro and Tat” (Drug Delivery and Translational Research, 2025)

Tests used:
[1] = not given; remark: listed apart in the source
NMRI mice [2] = settings: nasal
[3] = not given; remark: listed apart in the source
NMRI mice [4] = assay: Biodistribution after intravenous bolus injection to mice (reference group); settings: mice, 3 nmol/g, 1 h
Procedure: (§1) In an intravenous reference group, NA-1 was administered as a bolus injection (3 nmol/g body weight in 0.9% NaCl) into the tail vein. After 60 min compound circulation, the animals were transcardially perfused with 0.01 M PBS (pH 7.4). The brain, olfactory bulb, heart, lungs, spleen, kidneys, liver, and 2–3 cm of the upper part of duodenum were collected in 2 mL tubes and stored at -70 °C until analysis. […] The homogenate was spun down for 10 min at 14,000 rpm and 4 °C in a Sigma 1–15 K centrifuge (DJB Labcare, Newport Pagnell, England). […] Biodistribution of NA-1 was assessed by measuring the selenium content in tissue digested in HNO3 for 3–5 days at room temperature (50 mg tissue per 0.5 mL HNO3 for heart, lungs, spleen, kidney, and duodenum or 0.2 mL HNO3 for olfactory bulb and 1 mL HNO3 for the remaining brain. The tissue samples were spun down for 5 min at 10,000 rpm in a Sigma 1–15 K centrifuge (DJB Labcare, Newport Pagnell, England) before dilution (1:5–1:32) in 5% methanol with 0.1% trifluoroacetic acid in ultrapure water. The samples were analyzed with ICP-MS as described for transport studies, but with a 20 µL injection volume and a 2 min run time.

[5] = as above; settings: mouse, in vivo, iv, 3 nmol/g body weight
Procedure: as §1

[6] = tested on: primary porcine olfactory epithelial monolayers; assay: Transport of NA-1 alone or co-administered with cell-penetrating peptides across primary porcine olfactory epithelial monolayers (ICP-MS of selenium); format: in vitro ADME
Source text: Oxygen was applied as reaction gas.

[7] = tested on: primary porcine olfactory epithelial cells; assay: Cellular metabolic activity (XTT assay); format: cell-based; settings: 4 h incubation with 50 or 100 µM peptide in transport medium, 37 °C, N = 3, n = 3
Procedure: The cellular metabolic activity was assessed on olfactory epithelial cells cultured in a 96-well plate for 48 h using a commercially available sodium 3´-[1-(phenylaminocarbonyl)-3,4-tetrazolium]-bis (4-methoxy-6-nitro) benzene sulfonic acid hydrate (XTT) assay as directed by the manufacturer. […] Cells incubated with transport medium (MEM w/o phenol red, 0.05% BSA, 0.1 U/mL Penicillin, 0.1 µg/mL Streptomycin) without peptides served as live cell controls and wells with transport medium but no cells served as dead cell controls. After peptide incubation, the cells were gently washed twice with transport medium before incubation with 100 µL transport medium and 50 µL XTT labelling mixture (electron-coupling reagent: XTT labelling reagent 1:50) for 1 h at 37 °C with horizontal shaking (90 rpm). Samples (100 µL) from each well were transferred to a new 96-well plate and the absorbance was measured at 466 nm using a SPECTROstar Nano plate reader (BMG Labtech, Ortenberg, Germany). The relative cellular viability was calculated by Eq. 1:1

[8] = tested on: primary porcine olfactory epithelial monolayers; settings: ALI 20-21 days, apical to basolateral, 0.5 mg/mL in transport medium (MEM, 0.05% BSA), 37 °C, fluorescence read-out, mean (N = 3-4, n = 3)
Procedure: Transport studies were performed on olfactory epithelial cell monolayers cultured for 20 or 21 days under ALI conditions. […] 50 µL samples were withdrawn at time points 0.5, 1, 1.5, 2, 3, 4, and 24 h into black clear-bottom 96-well plates. The sampling volume was immediately replaced with 37 °C transport medium. […] The experiments with NA-1 and the cell-penetrating peptides were initiated by gently applying 300 µL samples (50 µM NA-1 alone or co-administered with 50 µM Tat, LowPro, or PenShuf) in 37 °C transport buffer to the apical compartment. 75 µL samples were withdrawn at time points 1, 2, 3, and 16 h into glass vials. The sampling volume was immediately replaced with 37 °C transport buffer. NA-1 was labelled with selenomethionine (M^Se) between the Tat and the NR2B9c moiety to facilitate analysis through selenium quantification using inductively coupled plasma mass spectrometry (ICP-MS). For selenium analysis, the samples were subjected to flow injection analysis on a Dionex Ultimate 3000 UPLC (Thermo Fischer Scientific, Germering, Germany) with ICP-MS detection using an Agilent 8800 Triple Quad equipped with a 2.5 mm quartz torch with platinum sampler -and skimmer cones (Agilent Technologies, Santa Clara, CA, USA).

[9] = tested on: primary porcine olfactory epithelial monolayers; assay: Transepithelial electrical resistance (TEER) before and after peptide incubation; format: cell-based; settings: 100 µM peptide, 3 h incubation, N = 3, n = 2
Source text: Thereafter, the cells were equilibrated to RT prior measuring the TEER with a chopstick electrode or in an Endohm-24 cup connected to an Epithelial Volt/Ohm meter (both World Precision Instruments, Sarasota, FL, USA). The measured TEER values were subtracted the resistance across an empty Transwell insert and multiplied with the area of the insert (0.33 cm^2) to obtain the standardized unit Ω⋅cm^2.

[10] = NA-1 alone, 3 nmol/g body weight, 1 h after administration, perfused, ICP-MS of selenium, mean (N = 4-6)

Molecule: CC[C@H](C)[C@H](NC(=O)[C@H](CO)NC(=O)[C@H](CO)NC(=O)[C@H](CC(C)C)NC(=O)[C@H](CCCCN)NC(=O)[C@H](CC[Se]C)NC(=O)[C@@H](CCCNC(=N)N)NC(=O)[C@@H](CCCNC(=N)N)NC(=O)[C@@H](CCCNC(=N)N)NC(=O)[C@@H](CCC(N)=O)NC(=O)[C@@H](CCCNC(=N)N)NC(=O)[C@@H](CCCNC(=N)N)NC(=O)[C@@H](CCCCN)NC(=O)[C@@H](CCCCN)NC(=O)[C@@H](CCCNC(=N)N)NC(=O)CNC(=O)[C@H](N)Cc1ccc(O)cc1)C(=O)N[C@@H](CCC(=O)O)C(=O)N[C@@H](CO)C(=O)N[C@@H](CC(=O)O)C(=O)N[C@H](C(=O)O)C(C)C [NA-1]
- apparent permeability (Papp) of NA-1 co-administered with Tat (× 10^− 6 cm/sec): 0.09
- apparent permeability (Papp) of NA-1 co-administered with LowPro (× 10^− 6 cm/sec) [1]: 0.22
- Rank order of off-target tissue distribution (NMRI mice [2]; 3 nmol/g, 1 h, not affected by co-administration with the cell-penetrating peptides): kidney > liver > spleen > duodenum > lung > heart
- NA-1 accumulation in the olfactory bulb, co-administered with LowPro (NMRI mice [2]; NA-1:LowPro 1:1 molar ratio, 3 nmol/g, 1 h, ICP-MS, mean (N = 4-6)): 2.98 % administered dose/g
- NA-1 accumulation in the olfactory bulb, co-administered with PenShuf (NMRI mice [2]; NA-1:PenShuf 1:1 molar ratio, 3 nmol/g, 1 h, ICP-MS, mean (N = 4-6)): 1.63 % administered dose/g
- NA-1 accumulation in the olfactory bulb, co-administered with Tat (NMRI mice [2]; NA-1:Tat 1:1 molar ratio, 3 nmol/g, 1 h, ICP-MS, mean (N = 4-6)): 2.13 % administered dose/g
- NA-1 accumulation in the olfactory bulb (NMRI mice [2]; [10]): 1.38 % administered dose/g
- NA-1 accumulation in the remaining brain (NMRI mice [2]; [10]): 0.54 % administered dose/g
- Combined amount of NA-1 reaching the olfactory bulb and the brain (NMRI mice [2]; NA-1 alone, 1 h, p = 0.15 vs intravenous control): 1.92 % of administered dose/g
- apparent permeability (Papp) of NA-1 co-administered with PenShuf (× 10^− 6 cm/sec) [3]: 0.8
- Fold higher amount of NA-1 in duodenum, intravenous vs nasal administration (NMRI mice [4]): 4.5 fold
- Fold higher amount of NA-1 in kidneys, intravenous vs nasal administration (NMRI mice [4]): 9.5 fold
- Fold higher amount of NA-1 in lungs, intravenous vs nasal administration (NMRI mice [4]): 2.8 fold
- Fold higher amount of NA-1 in spleen, intravenous vs nasal administration (NMRI mice [4]): 1.6 fold
- tissue uptake at 1 h [5]: 1.57 %ID/g
- Effect of co-administration with PenShuf on barrier permeation of NA-1 at the 16 h time-point ([6]; 50 µM NA-1 + 50 µM PenShuf vs NA-1 alone, 16 h, ICP-MS, N = 6, p < 0.0001 one-way ANOVA): significantly improved
- Fold better permeation potential of NA-1 compared to 4 KDa FITC-dextran ([6]; ratio of Papp values across primary porcine olfactory monolayers): 3.2 fold

Molecule: N=C(N)NCCC[C@H](NC(=O)[C@H](CCCNC(=N)N)NC(=O)[C@H](CCCNC(=N)N)NC(=O)[C@H](CCC(N)=O)NC(=O)[C@H](CCCNC(=N)N)NC(=O)[C@H](CCCNC(=N)N)NC(=O)[C@H](CCCCN)NC(=O)[C@H](CCCCN)NC(=O)[C@H](CCCNC(=N)N)NC(=O)CNC(=O)[C@@H](N)Cc1ccc(O)cc1)C(=O)O [Tat]
- Cellular metabolic activity relative to cell culture media controls [7]: slight decrease

Molecule: O=C([O-])c1ccccc1-c1c2ccc(=O)cc-2oc2cc([O-])ccc12.[Na+].[Na+] [sodium fluorescein]
- Fraction of applied compound permeated the barrier upon 24 h of incubation [8]: 29.3%

Molecule: RWFKIQMQIRRWKNKK [PenShuf]
- Barrier integrity (TEER before vs after incubation), highest applied concentration [9]: negatively affect the barrier integrity
